Test system: human hepatoma Huh-7 cell line harboring a HCV replicon
Assay: HCV replicon assay (inhibition of viral replication, luciferase readout)
Format: cell-based
Conditions: Hepatitis C virus, 72 h, Huh-7 HCV replicon cells, 3 days incubation
Outline: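 Huh-7 replicon cells were exposed to 10-point 3-fold compound dilutions (0.44% DMSO) for 3 days at 37 °C. Replicon replication was read by Dual-Glo luciferase, with background from protease-inhibitor wells subtracted, and viability by calcein AM. EC50/CC50 came from a Hill-equation fit versus DMSO controls.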

In order of falling inhibition at 2 µM:
1. CN(C)C1CCN(C(=O)c2ccnc(O[C@H]3CC[C@H](N(c4cc(C#CC(C)(C)C)sc4C(=O)O)C(=O)[C@H]4CC[C@H](C)CC4)CC3)c2)C1 (stereo partly shown) [Compound 169, Sodium 3-(N-(4-(4-(3-(dimethylamino)pyrrolidine-1-carbonyl)pyridin-2-yloxy)cyclohexyl)-4-methylcyclohexanecarboxamido)-5-(3,3-dimethylbut-1-ynyl)thiophene-2-carboxylate]  100%
2. Cn1nc(O[C@H]2CC[C@@H](N(c3cc(C#CC(C)(C)C)sc3C(=O)O)C(=O)[C@H]3CC[C@H](C)CC3)CC2)ccc1=O [Compound 173, Sodium 5-(3,3-dimethylbut-1-ynyl)-3-(4-methyl-N-(4-(1-methyl-6-oxo-1,6-dihydropyridazin-3-yloxy)cyclohexyl)cyclohexanecarboxamido)thiophene-2-carboxylate]  100%
3. Cn1nc(O[C@H]2CC[C@H](N(c3cc(C#CC(C)(C)C)sc3C(=O)O)C(=O)[C@H]3CC[C@H](C)CC3)CC2)ccc1=O [Compound 174, 5-(3,3-Dimethylbut-1-ynyl)-3-(4-methyl-N-(4-(1-methyl-6-oxo-1,6-dihydropyridazin-3-yloxy)cyclohexyl)cyclohexanecarboxamido)thiophene-2-carboxylic acid]  100%
4. CN(C)Cc1ccnc(O[C@H]2CC[C@@H](N(c3cc(C#CC(C)(C)C)sc3C(=O)O)C(=O)[C@H]3CC[C@H](C)CC3)CC2)c1 [Compound 175, Sodium 3-(N-(4-(4-((dimethylamino)methyl)pyridin-2-yloxy)cyclohexyl)-4-methylcyclohexanecarboxamido)-5-(3,3-dimethylbut-1-ynyl)thiophene-2-carboxylate]  100%
5. CC(C)(C)C#Cc1cc(N(C(=O)[C@H]2CC[C@H](C)CC2)[C@H]2CC[C@@H](Oc3ccc(O)nn3)CC2)c(C(=O)O)s1 [Compound 178, 5-(3,3-Dimethylbut-1-ynyl)-3-(N-(4-(6-hydroxypyridazin-3-yloxy)cyclohexyl)-4-methylcyclohexanecarboxamido)thiophene-2-carboxylic acid]  100%
6. CC(C)(C)C#Cc1cc(N(C(=O)[C@H]2CC[C@H](C)CC2)[C@H]2CC[C@H](Oc3ccc(CN4CCCC4=O)cn3)CC2)c(C(=O)O)s1 [Compound 170, Sodium 5-(3,3-dimethylbut-1-ynyl)-3-(4-methyl-N-(4-(5-((2-oxopyrrolidin-1-yl)methyl)pyridin-2-yloxy)cyclohexyl)cyclohexanecarboxamido)thiophene-2-carboxylate]  99.9%
7. CC(C)(C)C#Cc1cc(N(C(=O)[C@H]2CC[C@H](C)CC2)[C@H]2CC[C@H](Oc3ccc4nccn4n3)CC2)c(C(=O)O)s1 [Compound 176, Sodium 5-(3,3-dimethylbut-1-ynyl)-3-(N-(4-(imidazo[1,2-b]pyridazin-6-yloxy)cyclohexyl)-4-methylcyclohexanecarboxamido)thiophene-2-carboxylate]  99.8%
8. CC(C)(C)C#Cc1cc(N(C(=O)[C@H]2CC[C@H](C)CC2)[C@@H]2CCC(Oc3ccccn3)C(CN3CCCC3)C2)c(C(=O)O)s1 (stereo partly drawn) [Compound 171, Sodium 5-(3,3-dimethylbut-1-ynyl)-3-(4-methyl-N-((1R)-4-(pyridin-2-yloxy)-3-(pyrrolidin-1-ylmethyl)cyclohexyl)cyclohexanecarboxamido)thiophene-2-carboxylate]  99.7%
9. CC(C)(C)C#Cc1cc(N(C(=O)[C@H]2CC[C@H](C)CC2)[C@H]2CC[C@@H](Oc3ccc(Cl)nn3)CC2)c(C(=O)O)s1 [Compound 177, 3-(N-(4-(6-Chloropyridazin-3-yloxy)cyclohexyl)-4-methylcyclohexanecarboxamido)-5-(3,3-dimethylbut-1-ynyl)thiophene-2-carboxylic acid]  99.6%
10. CC(C)(C)C#Cc1cc(N(C(=O)[C@H]2CC[C@H](C)CC2)[C@H]2CC[C@@H](Oc3cncnc3)CC2)c(C(=O)O)s1 [Compound 179, 5-(3,3-Dimethylbut-1-ynyl)-3-(4-methyl-N-(4-(pyrimidin-5-yloxy)cyclohexyl)cyclohexanecarboxamido)thiophene-2-carboxylic acid]  99.5%

— patent US8569302B2, “Inhibitors of flaviviridae viruses” (Gilead Sciences, Inc., priority 2009, dated 2013)
